Earlier results as cited in patent US20170143824A1 (Teva Pharmaceutical Industries, Ltd., priority 2013, published 2017).

System: patients with RRMS
Details: registration trials, compared with placebo

**Q.** For “L-glutamic acid polymer with L-alanine, L-lysine, L-tyrosine, acetate (salt) [glatiramer acetate]”, which “reduction of relapse rate” value is on record?
**A.** Its value is “about one third”.
